# Legend:
# Candida albicans 10231 = experiment: Zone of Inhibition Assay for Candida albicans 10231; type: cell-based
# Procedure: Candida albicans is opportunistic pathogenic yeast found to have growth on fruits rich in sugar content like bananas, dates, grapes, mango, and dried fruit. The zone of inhibition assay is performed for the culture of Candida albicans 10231.
# [1] = test system: crown rot disease in Banana; experiment: Crown rotting evaluation of bananas washed in industrial set-up (banana plantation); details: bananas soaked 30 minutes maximum in 2% VFW solution in water or NaClO solution in water
# Procedure: As crown rot progresses, fruits like banana begins to soften and blacken and induces early ripening of fruits.
# The crown-rot and fruit blackening studies are conducted to determine the efficacy of the Vegetable and Fruit Wash to protect the fruits from the so-called disease and also from premature ripening. This study is also conducted to determine the efficacy of the present invention in prolonging the life of the fruits, i.e. in increasing the shelf life of the fruits.
# A batch of bananas is washed using 2% of Vegetable and Fruit Wash solution in water. The bananas are soaked in the solution for 30 minutes maximum, rinsed, dried and packed and are observed after 2 weeks of washing and after 4 weeks of washing post-delivery and ripening. Another batch of bananas are washed using Sodium Hypochlorite (NaClO) solution in water as per the industry standard washing procedure. The bananas are soaked in the solution for 30 minutes maximum, rinsed, dried and packed. They are observed after 2 weeks of washing and after 4 weeks of washing post delivery and ripening.
# Escherichia coli 8739 = experiment: Zone of Inhibition Assay for Escherichia coli 8739; type: cell-based
# Procedure: (§1) The anti-microbial efficacy of VFW composition is evaluated by finding its zone of inhibition against Staphylococcus Aureus, Escherichia coli, Candida Albicans and Aspergillus Niger and compared with zone of inhibition of standard antibiotics known to be very potent in eliminating the subject microorganism.
# as §1, with “albicans” for “Albicans”, “niger” for “Niger”
# 20-30% of food-poisoning outbreaks linked to disease causing strains of the bacterium Escherichia coli are caused by people eating contaminated vegetables. The assay was performed for the culture of Escherichia coli 8739. Gentamicin is known to be very effective in eliminating this strain and is used as standard antibiotic.
# [2] = test system: Staphylococcus aureus ATCC 6538; experiment: Zone of Inhibition Assay for Staphylococcus aureus ATCC 6538; type: cell-based
# Procedure: as §1
# as §1, with “albicans” for “Albicans”, “niger” for “Niger”
# Staphylococcus aureus is a gram-positive, round-shaped bacterium found as dominant genera on the surfaces of vegetables and fruits. The assay was performed for the culture of Staphylococcus aureus ATCC 6538. Ciplox is known to be very effective in eliminating this strain. It was used as standard antibiotic.
compound,measurement,setting,value
Zinc pyrithione [ZPTO],Zone of Inhibition (mm),Candida albicans 10231,24.37 mm
"OCl [NaClO, Sodium Hypochlorite]",Number of Rotten Crowns 2 weeks after Washing,[1],1
same,Number of Rotten Crowns 4 weeks after Washing,[1],3
same,Number of Rotten Crowns after Ripening,[1],5
Gentamicin,Zone of Inhibition (mm),Escherichia coli 8739,24.54 mm
O=C(O)c1cn(C2CC2)c2cc(N3CCNCC3)c(F)cc2c1=O [Ciplox],Zone of Inhibition (mm),[2],27.64 mm
